Data reported in patent US6452005B1, “JAK-3 inhibitors for treating allergic disorders” (Parker Hughes Institute, priority 1999, dated 2002).
pIC50: −log10 of the molar value. Like-named read-outs stand apart in the source and are kept apart here.

Assays:
human JAK3 [1] = target: T1, human JAK3 (Homo sapiens, UniProt P52333); test: JAK3 kinase inhibition (Table 1 IC50, immune complex kinase assay); format: biochemical; settings: for pIC50: Table 1, measured inhibition values for JAK3 kinase
T1 construct: KL-2 EBV-transformed human lymphoblastoid B cells (native JAK3 kinase assays); endogenous in cells; host or cells: KL-2 EBV-transformed human lymphoblastoid B cell line
T1 sequence (P52333 1-1124): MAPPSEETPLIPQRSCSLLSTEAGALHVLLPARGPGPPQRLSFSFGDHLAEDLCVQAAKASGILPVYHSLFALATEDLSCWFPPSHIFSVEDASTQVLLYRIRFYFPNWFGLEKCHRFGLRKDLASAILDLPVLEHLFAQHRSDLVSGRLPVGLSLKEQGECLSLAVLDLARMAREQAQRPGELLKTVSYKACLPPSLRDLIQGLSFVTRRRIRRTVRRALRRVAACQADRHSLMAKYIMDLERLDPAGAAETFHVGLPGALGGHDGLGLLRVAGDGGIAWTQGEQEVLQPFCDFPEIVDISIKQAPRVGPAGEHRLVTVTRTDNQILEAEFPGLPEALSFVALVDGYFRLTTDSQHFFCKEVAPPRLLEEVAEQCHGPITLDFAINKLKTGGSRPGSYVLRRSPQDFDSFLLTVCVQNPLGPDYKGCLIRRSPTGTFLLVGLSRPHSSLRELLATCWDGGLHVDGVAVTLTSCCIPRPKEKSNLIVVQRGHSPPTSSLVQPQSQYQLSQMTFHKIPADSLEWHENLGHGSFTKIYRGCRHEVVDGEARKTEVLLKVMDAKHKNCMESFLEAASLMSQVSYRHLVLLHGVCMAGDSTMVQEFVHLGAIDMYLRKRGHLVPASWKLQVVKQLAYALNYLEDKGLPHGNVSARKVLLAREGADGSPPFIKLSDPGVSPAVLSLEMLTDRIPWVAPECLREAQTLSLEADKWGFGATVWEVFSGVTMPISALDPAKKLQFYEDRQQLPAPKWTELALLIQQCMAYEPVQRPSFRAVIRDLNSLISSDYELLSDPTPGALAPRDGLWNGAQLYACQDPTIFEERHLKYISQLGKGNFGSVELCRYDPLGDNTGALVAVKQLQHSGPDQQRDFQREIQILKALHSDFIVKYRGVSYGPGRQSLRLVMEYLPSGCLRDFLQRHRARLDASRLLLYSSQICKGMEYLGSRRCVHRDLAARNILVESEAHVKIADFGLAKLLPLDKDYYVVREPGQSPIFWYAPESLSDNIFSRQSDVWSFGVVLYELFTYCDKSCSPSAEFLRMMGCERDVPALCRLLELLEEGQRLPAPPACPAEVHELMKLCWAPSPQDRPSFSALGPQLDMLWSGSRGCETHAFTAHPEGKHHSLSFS
Procedure: Immune Complex Kinase Assays.
(§1) KL-2 EBV-transformed human lymphoblastoid B cells (native JAK3 kinase assays) or insect ovary cells (recombinant JAK3 kinase assays) were lysed with NP-40 lysis buffer (50 mM Tris, pH 8, 150 mM NaCl, 5 mM EDTA, 1% NP-40, 100 μM sodium orthovanadate, 100 μM sodium molybdate, 8 μg/ml aprotinin, 5 μg/ml leupeptin, and 500 μM PMSF) and centrifuged 10 minutes at 13000×g to remove insoluble material. Samples were immunoprecipitated with antisera prepared against JAK3. The antisera were diluted and immune complexes collected by incubation with 15 μl protein A Sepharose. After 4 washes with NP-40 lysis buffer, the protein A Sepharose beads were washed once in kinase buffer (20 mM MOPS, pH 7.0, 10 mM MgCl2) and resuspended in the same buffer. Reactions were initiated by the addition of 25 μCi γ[^32P] ATP (5000 Ci/mMole) and unlabeled ATP to a final concentration of 5 μM. Reactions were terminated by boiling for 4 min in SDS sample buffer. Samples were run on 9.5% SDS polyacrylamide gels and labeled proteins will be detected by autoradiography. Following electrophoresis, kinase gels were dried onto Whatman 3M filter paper and subjected to phosphoimaging on a Molecular Imager (Bio-Rad, Hercules, Calif.) as well as autoradiography on film. For each drug concentration, a kinase activity index (KA) was determined by comparing the kinase activity in phosphorimager units (PIU) to that of the baseline sample. In some experiments, cold kinase assays were performed, as described (Uckun et. al., 1998, Clin. Cancer Res., 4:901-912).

human JAK3 [2] = target: T1, human JAK3; test: Immune complex kinase assay, JAK3 immunoprecipitated from KL2 EBV-transformed lymphoblastoid B cell line; format: biochemical; settings: JAK3 immunoprecipitated from KL2 cells
Procedure: as §1, with “Following electrophoresis, kinase gels were dried onto Whatman 3M filter paper and subjected to phosphoimaging on a Molecular Imager (Bio-Rad, Hercules, Calif.) as well as autoradiography on film.” left out, “In some experiments, cold kinase assays were performed, as described (Uckun et. al., 1998, Clin. Cancer Res., 4:901-912).” left out

RBL-2H3 mast cells [3] = test: IgE/antigen-induced degranulation and mediator release; format: cell-based, rat; settings: 1 h preincubation, DNP-BSA challenge; at ≧30 μM
Source text: Vehicle treated control RBL-2H3 cells released 45.1±3.1% of their hexosaminidase contents after DNP-BSA challenge. […] Vehicle treated control cells released 11.3±1.3 pg LTC4, and 160±33.0 pg TNFα/10^6 mast cells. The results on LTC4 and TNFα release are expressed as percent of maximum control release from vehicle treated control mast cells. The data points represent the mean±SEM values obtained from 3-6 independent experiments. […] *P<0.05 and **P<0.0001 compared to control as determined by Student's t test.
Supernatants were removed and saved.

RBL-2H3 mast cells [4] = test: IgE/antigen-induced activation (cell spreading, microtubule organization) by confocal microscopy; format: cell-based, rat; settings: 30 μM, two hour incubation
Procedure: RBL-2H3 cells were cultured overnight on 22×22 mm coverslips at a cell density of 0.01×10^6/ml with […] DNP-IgE. Sensitized RBL-2H3 cells were then treated with 30 μM WHI-P131, vehicle, or control compounds WHI-P258 and WHI-P112 prior to challenge with DNP-BSA, as described in the legend of FIG. 4. After stimulation with DNP-BSA for 1 hour, cells were fixed in cold methanol for 15 minutes followed by permeabilization with PBS containing 0.1% Triton X-100. […] After washing 3 times with PBS-0.1% Triton X-100, cells were incubated with fluorescein labeled secondary antibody (Zymed, San Francisco, Calif.) for another 40 minutes. Cells were washed three times to remove unbound antibody. DNA labeling was performed by incubation of coverslips with toto-3 (Molecular Probes, Eugene, Oreg.) for 10 minutes. Excessive dye was washed with PBS-0.1% Triton X-100. Cells were visualized under MRC 1024 Laser Scanning Microscope after mounting with Vectashield (Vector laboratories, Inc, Burlingame, Calif.), as previously reported.
Confocol Microscopy: Staining of mast cells with primary and secondary antibodies followed by confocal laser scanning microscopy was performed as previously described in detail (Uckun et. al., 1998, Clin. Cancer Res., 4:901-912). After staining with appropriate primary and secondary antibodies, cells were washed three times to remove unbound antibody. DNA labeling was performed by incubation of coverslips with toto-3 (Molecular Probes, Eugene, Oreg.) for 10 min. Excessive dye was washed with PBS-0.1% triton X-100. Cells were visualized under MRC 1024 Laser Scanning Microscope after mounting with Vectashield (Vector laboratories, Inc, Burlingame, Calif.).
In a systematic effort aimed at elucidating the biologic consequences of JAK3 inhibition in mast cells, we first sought to determine if the JAK3 inhibitor WHI-P131 could prevent the IgE receptor/FcεRI-mediated activation of mast cells. Since the IgE receptor/FcεRI-mediated activation of mast cells results in a distinct morphologic transformation with marked cell spreading due to membrane ruffling, microtubule formation and actin polymerization (Apgar, 1997), we evaluated the effects of WHI-P131 on the activation-associated transformation of shape and surface topography of RBL-2H3 mast cells using confocal laser scanning microscopy (Ghosh et. al., 1998).

[5] = test system: JAK3-dependent STAT activation; test: EMSA, IL-2 triggered STAT activation in 32Dc11/IL2Rβ cells; format: cell-based; settings: 10 μg/ml, 32Dc11/IL2Rβ cells
Procedure: Electrophoretic Mobility Shift Assays (EMSAs). EMSAs were performed to examine the effects of dimethoxyquinazoline compounds on cytokine-induced STAT activation (Goodman et. al., 1998). […] Cells were collected after 15 minutes and resuspended in lysis buffer (100 mM Tris-HCl pH 8.0, 0.5% NP-40, 10% glycerol, […], 0.1 mM NaVO3, 50 mM NaF, 150 mM NaCl, 1 mM DTT, 3 μg/ml Aprotinin, 2 μg/ml Pepstatin A, 1 μg/ml Leupeptin and 0.2 mM PMSF). Lysates were precleared by centrifugation for 30 min. Cell extracts (approximately 10 μg) were incubated with 2 μg of poly(dI-dC) for 30 minutes, followed by a 30 minutes incubation with 1ng of poly. nucleotide kinase-^32P labeled double stranded DNA oligonucleotide representing the IRF-1 STAT DNA binding sequence (Santa Cruz Biotechnology, Santa Cruz, Calif.). Samples were resolved by non-denaturing PAGE and visualized by autoradiography.

mast cell = settings: cited from earlier work

## COc1cc2ncnc(Nc3cccc(Br)c3)c2cc1OC [WHI-P79, 4-(3′-Bromophenyl)-amino-6,7-dimethoxyquinazoline]
Human JAK3 [1]
  pIC50: < 3.52

## COc1cc2ncnc(Nc3cc(Br)c(O)c(Br)c3)c2cc1OC [WHI-P97, 4-(3′,5′-Dibromo-4′-hydroxylphenyl)-amino-6,7-dimethoxyquinazoline]
Human JAK3 [1]
  pIC50: 4.96
Human JAK3 [2]
  pIC50: 4.96

## COc1cc2ncnc(Nc3ccc(C)c(Br)c3)c2cc1OC [WHI-P111, 4-(3′-Bromo-4-methylphenyl)-amino-6,7-dimethoxyquinazoline]
RBL-2H3 mast cells [3]
  LTC4 release: did not inhibit
  TNFα release: did not inhibit
  β-hexosaminidase release (degranulation): did not inhibit
Human JAK3 [1]
  JAK3 inhibitory activity (in words): do not inhibit JAK3
  pIC50: < 3.52

## COc1cc2ncnc(Nc3cc(Br)ccc3Br)c2cc1OC [WHI-P112, 4-(2′,5′-Dibromophenyl)-amino-6,7-dimethoxyquinazoline]
RBL-2H3 mast cells [3]
  LTC4 release: did not inhibit
  TNFα release: did not inhibit
  β-hexosaminidase release (degranulation): did not inhibit
Human JAK3 [1]
  JAK3 inhibitory activity (in words): do not inhibit JAK3
  pIC50: < 3.70
Human JAK3 [1]; listed as WHI-112
  JAK3 inhibitory activity (in words): does not inhibit JAK3
RBL-2H3 mast cells [4]
  IgE/antigen-induced mast cell activation (spreading and microtubule organization): unable to produce any significant effects

## COc1cc2ncnc(Nc3ccccc3O)c2cc1OC [WHI-P132, 4-(2′-Hydroxylphenyl)-amino-6,7-dimethoxyquinazoline]
Human JAK3 [1]
  JAK3 inhibitory activity (in words): inactive
  pIC50: < 3.52
[5]
  JAK3-dependent STAT activation after stimulation with IL-2: not

## COc1cc2ncnc(Nc3cccc(O)c3)c2cc1OC [WHI-P180, 4-(3′-hydroxyphenyl)-amino-6,7-dimethoxyquinazoline]
Mast cell; IgE/antigen induced mast cell responses
  potency relative to WHI-P258: much more potent
Mast cell; IgE/antigen induced
  mast cell degranulation (β-hexasaminidase release): effectively inhibited
  secretion of newly synthesized mediators (LTC4 release): effectively inhibited
Human JAK3 [1]
  pIC50: 5.52

## COc1cc2ncnc(Nc3ccccc3)c2cc1OC [WHI-P258, 4-(Phenyl)-amino-6,7-dimethoxyquinazoline]
Human JAK3 [1]
  JAK3 inhibitory activity (in words): lacks JAK3 inhibitory activity
  pIC50: < 3.52
